Source: patent US20250154198A1, “PEPTIDE INHIBITORS OF INTERLEUKIN-23 RECEPTOR” (Zealand Pharma A/S, priority 2021, published 2025)
*1 amine or outer side, *2 acyl side, *3 side chain or, on linkers, in order; H or OH if unused. Where a SMILES comes first, the peptide text is derived from it. Bridges are numbered along the chain shown (N, C = ends). [ ]: non-standard residue; d: D form. NHCH2(1,3-C6H4)CH2CO = O=C(Cc1cccc(CN[*:1])c1)[*:2]; dTrp(6-F) = N[C@H](Cc1c[nH]c2cc(F)ccc12)C(=O)O; αMeAla(3-pyridyl) = C[C@](N)(Cc1cccnc1)C(=O)O; Trp(1-Me) = Cn1cc(C[C@H](N)C(=O)O)c2ccccc21; Phe(3,4-Me2) = Cc1ccc(C[C@H](N)C(=O)O)cc1C; Bip = N[C@@H](Cc1ccc(-c2ccccc2)cc1)C(=O)O; Phe(4-Me) = Cc1ccc(C[C@H](N)C(=O)O)cc1; dPhe(4-F) = N[C@H](Cc1ccc(F)cc1)C(=O)O; 2Nal = N[C@@H](Cc1ccc2ccccc2c1)C(=O)O; AEF = NCCOc1ccc(C[C@H](N)C(=O)O)cc1; X1 = O=C(Cc1ccc(CN[*:1])cc1)[*:2]; αMeL = CC(C)C[C@](C)(N)C(=O)O; CH2COCH2 = O=C(C[*:1])C[*:2]; Phg = N[C@H](C(=O)O)c1ccccc1; αMeV = CC(C)[C@](C)(N)C(=O)O; Dab = NCC[C@H](N)C(=O)O

Experiments:
[1] = Peptide stability in simulated intestinal fluid (SIF); format: in vitro ADME; settings: pig, simulated intestinal fluid (SIF) with porcine pancreatin, Table 3-2, porcine pancreatin, pH 6.8, 37° C., 10 μM; for remaining at 1 h, 10 μM: read-out: SIF (% remaining 1 h); for remaining at 4 h, 10 μM: read-out: SIF (% remaining 4 h)
Procedure: Determination of Peptide Stability in Simulated Gastric Fluid (SGF) and Simulated Intestinal Fluid (SIF)
SGF was prepared by dissolving sodium chloride (0.2 g) in 50 mL of water. A volume of 0.7 mL of 10 M HCl was added to adjust the pH of the solution to 1.2 and the volume made up to 100 mL with water. […] SIF was prepared by dissolving monobasic potassium phosphate (0.68 g) in 50 mL of water and adjusting the pH to 6.8 with 1 M NaOH. The volume was subsequently made up to 100 mL with water. 200 mg porcine pancreatin (P1625, Sigma Aldrich) was gently dissolved into 20 mL preheated (37° C.) solution (10 g/L) immediately prior to the incubation.
The incubation was performed at 37° C. with gentle shaking. […] After the last timepoint, the sampling plate was mixed for 10 min on a shaking table and centrifuged 10 min at 2200 g. 70 μL resulting supernatant was diluted with 150 μL water, mixed and centrifugated before analysis by liquid chromatography high resolution mass spectrometry. […] Percent remaining at each timepoint was calculated relative to timepoint zero based on absolute peak areas.

human IL-23R = biological target: T1, human IL-23R (Homo sapiens, UniProt Q5VWK5); assay: Binding assay (NanoBRET displacement of fluorophore-labelled reference compound) for estimating binding affinity to human IL-23R; settings: Table 3-1; read-out: Ki hIL-23R
T1 construct: UniProtKB—Q5VWK5, amino acids 22-629; secretion signal of the plasmid (Promega N1371); expressed in transfected cells
T1 sequence (Q5VWK5 22-629): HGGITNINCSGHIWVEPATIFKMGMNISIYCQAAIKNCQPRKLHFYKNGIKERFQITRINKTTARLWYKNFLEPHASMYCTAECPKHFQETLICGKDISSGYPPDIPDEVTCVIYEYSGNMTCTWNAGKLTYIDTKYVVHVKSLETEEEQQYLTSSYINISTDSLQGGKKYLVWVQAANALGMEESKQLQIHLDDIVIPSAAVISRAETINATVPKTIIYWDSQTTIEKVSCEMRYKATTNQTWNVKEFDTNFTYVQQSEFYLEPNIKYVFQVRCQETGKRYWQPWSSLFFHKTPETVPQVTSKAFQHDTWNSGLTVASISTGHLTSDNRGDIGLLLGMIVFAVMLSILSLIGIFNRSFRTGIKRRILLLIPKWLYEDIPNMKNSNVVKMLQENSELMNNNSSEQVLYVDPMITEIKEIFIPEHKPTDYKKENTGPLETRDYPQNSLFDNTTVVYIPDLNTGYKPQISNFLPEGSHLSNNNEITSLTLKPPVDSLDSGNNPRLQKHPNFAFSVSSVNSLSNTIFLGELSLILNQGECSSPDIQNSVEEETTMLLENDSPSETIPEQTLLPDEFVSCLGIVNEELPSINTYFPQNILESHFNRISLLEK

| SMILES | remaining at 1 h, 10 μM [1] [%] | remaining at 4 h, 10 μM [1] [%] | Ki (human IL-23R) [pM] |
| --- | --- | --- | --- |
| CC(C)C[C@]1(C)NC(=O)[C@H](Cc2ccc3ccccc3c2)NC(=O)[C@H](Cc2ccc(OCCN)cc2)NC(=O)[C@@H]2CCC(=O)NCC[C@H](NC(=O)[C@H](CO)NC(=O)Cc3ccc(cc3)CNC(=O)CC[C@@H](C(=O)N[C@@H](CCN)C(=O)N[C@@H](Cc3cccnc3)C(N)=O)NC1=O)C(=O)N[C@@H](Cc1c[nH]c3ccccc13)C(=O)N[C@@H](CCC(N)=O)C(=O)N2 (relative stereo) [Compound 123, [4-Aminomethyl-phenylacetyl](1c)*S[Dab](2c)WQE(2c)[Y(2-aminoethoxy)][2-Nal][2-Me-Leu]E(1c)[Dab][3-(3-Pyridyl)-Ala]-[NH2]] | 46 | 4 | 7.83 |
| CC(=O)N[C@H]1CCCCNC(=O)CC[C@@H](C(=O)N[C@@H](CCCNC(=N)N)C(N)=O)NC(=O)[C@](C)(CC(C)C)NC(=O)[C@H](Cc2ccc3ccccc3c2)NC(=O)[C@H](Cc2ccc(OCCN)cc2)NC(=O)[C@@H]2CSCC(=O)CSC[C@H](NC(=O)[C@H](CO)NC1=O)C(=O)N[C@@H](Cc1c[nH]c3ccccc13)C(=O)N[C@@H](CCC(N)=O)C(=O)N2 [Compound 47, [Ac]-K(1c)SC(2a)WQC(2a)[Y(2-aminoethoxy)][2-Nal][2-Me-Leu]E(1c)R-[NH2]] (Ac-KSCWQC[AEF][2Nal][αMeL]ER-NH2; lactam 1-10; linker 3-6 via CH2COCH2) | 2 | 0 |  |
| CC(=O)N[C@H]1CCCCNC(=O)CC[C@@H](C(=O)N[C@@H](CCCNC(=N)N)C(N)=O)NC(=O)[C@@H](CC(C)C)NC(=O)[C@H](Cc2ccc3ccccc3c2)NC(=O)[C@H](Cc2ccc(OCCN)cc2)NC(=O)[C@@H]2CSCC(=O)CSC[C@H](NC(=O)[C@H](CO)NC1=O)C(=O)N[C@@H](Cc1c[nH]c3ccccc13)C(=O)N[C@@H](CCC(N)=O)C(=O)N2 [Compound 48, [Ac]-K(1c)SC(2a)WQC(2a)[Y(2-aminoethoxy)][2-Nal][{d}L]E(1c)R-[NH2]] (Ac-KSCWQC[AEF][2Nal][dL]ER-NH2; lactam 1-10; linker 3-6 via CH2COCH2) | 0 | 0 | 17000 |
| CC(=O)N[C@H]1CCCCNC(=O)CC[C@@H](C(=O)N[C@H](CCCNC(=N)N)C(N)=O)NC(=O)[C@](C)(CC(C)C)NC(=O)[C@H](Cc2ccc3ccccc3c2)NC(=O)[C@H](Cc2ccc(OCCN)cc2)NC(=O)[C@@H]2CSCC(=O)CSC[C@H](NC(=O)[C@H]([C@@H](C)O)NC1=O)C(=O)N[C@@H](Cc1c[nH]c3ccccc13)C(=O)N[C@@H](CCC(N)=O)C(=O)N2 [Compound 85, [Ac]-K(1c)TC(2a)WQC(2a)[Y(2-aminoethoxy)][2-Nal][2-Me-Leu]E(1c)[{d}R]-[NH2]] (Ac-KTCWQC[AEF][2Nal][αMeL]E[dR]-NH2; lactam 1-10; linker 3-6 via CH2COCH2) |  | 74 | 321 |
| CC(C)C[C@]1(C)NC(=O)[C@H](Cc2ccc3ccccc3c2)NC(=O)[C@H](Cc2ccc(OCCN)cc2)NC(=O)[C@@H]2CSCC(=O)CSC[C@H](NC(=O)[C@H](CO)NC(=O)Cc3cccc(c3)CNC(=O)CC[C@@H](C(=O)N[C@H](CCCNC(=N)N)C(N)=O)NC1=O)C(=O)N[C@@H](Cc1c[nH]c3ccccc13)C(=O)N[C@@H](CCC(N)=O)C(=O)N2 [Compound 92, [3-Aminomethyl-phenylacetyl](1c)*SC(2a)WQC(2a)[Y(2-aminoethoxy)][2-Nal][2-Me-Leu]E(1c)[{d}R]-[NH2]] ([NHCH2(1,3-C6H4)CH2CO]SCWQC[AEF][2Nal][αMeL]E[dR]-NH2; linker 3-6 via CH2COCH2; lactam N-10) |  | 102 |  |
| CC[C@H](C)[C@@H]1NC(=O)Cc2ccc(cc2)CNC(=O)CC[C@@H](C(=O)N[C@@H](CCN)C(=O)N[C@@](C)(Cc2cccnc2)C(N)=O)NC(=O)[C@](C)(C(C)C)NC(=O)[C@H](Cc2cn(C)c3ccccc23)NC(=O)[C@H](Cc2ccc(C)cc2)NC(=O)[C@@H]2CCNC(=O)CC[C@H](NC1=O)C(=O)N[C@@H](Cc1c[nH]c3ccccc13)C(=O)N[C@@H](CCC(N)=O)C(=O)N2 [Compound 175, [4-Aminomethyl-phenylacetyl](1c)*IE(2c)WQ[Dab](2c)[F(4-Me)][1-Me-Trp][2-Me-Val]E(1c)[Dab][2-Me-3-(3-Pyridyl)-Ala]-[NH2]] ([X1]IEWQ[Dab][Phe(4-Me)][Trp(1-Me)][αMeV]E[Dab][αMeAla(3-pyridyl)]-NH2; lactam 3-6, N-10) |  | 93 |  |
| CC[C@H](C)[C@@H]1NC(=O)Cc2ccc(cc2)CNC(=O)CC[C@@H](C(=O)N[C@@H](CCN)C(=O)N[C@@](C)(Cc2cccnc2)C(N)=O)NC(=O)[C@](C)(C(C)C)NC(=O)[C@@H](Cc2c[nH]c3cc(F)ccc23)NC(=O)[C@H](Cc2ccc(C)cc2)NC(=O)[C@@H]2CCNC(=O)CC[C@H](NC1=O)C(=O)N[C@@H](Cc1c[nH]c3ccccc13)C(=O)N[C@@H](CCC(N)=O)C(=O)N2 [Compound 177, [4-Aminomethyl-phenylacetyl](1c)*IE(2c)WQ[Dab](2c)[F(4-Me)][{d}6-F-Trp][2-Me-Val]E(1c)[Dab][2-Me-3-(3-Pyridyl)-Ala]-[NH2]] ([X1]IEWQ[Dab][Phe(4-Me)][dTrp(6-F)][αMeV]E[Dab][αMeAla(3-pyridyl)]-NH2; lactam 3-6, N-10) |  | 63 |  |

The next lines start with the values.

| remaining at 1 h, 10 μM [1] [%] | remaining at 4 h, 10 μM [1] [%] | Ki (human IL-23R) [pM] | SMILES |
| --- | --- | --- | --- |
|  | 86 |  | CC[C@H](C)[C@@H]1NC(=O)Cc2ccc(cc2)CNC(=O)CC[C@@H](C(=O)N[C@@H](CCN)C(=O)N[C@@](C)(Cc2cccnc2)C(N)=O)NC(=O)[C@](C)(C(C)C)NC(=O)[C@H](Cc2ccc(C)c(C)c2)NC(=O)[C@H](Cc2ccc(OC)cc2)NC(=O)[C@@H]2CCNC(=O)CC[C@H](NC1=O)C(=O)N[C@@H](Cc1c[nH]c3ccccc13)C(=O)N[C@@H](CCC(N)=O)C(=O)N2 [Compound 166, [4-Aminomethyl-phenylacetyl](1c)*IE(2c)WQ[Dab](2c)[Y(Me)][F(3,4-Me)][2-Me-Val]E(1c)[Dab][2-Me-3-(3-Pyridyl)-Ala]-[NH2]] ([X1]IEWQ[Dab]Y(Me)[Phe(3,4-Me2)][αMeV]E[Dab][αMeAla(3-pyridyl)]-NH2; lactam 3-6, N-10) |
|  | 104 |  | CC[C@H](C)[C@@H]1NC(=O)Cc2ccc(cc2)CNC(=O)CC[C@@H](C(=O)N[C@@H](CCN)C(=O)N[C@@](C)(Cc2cccnc2)C(N)=O)NC(=O)[C@](C)(C(C)C)NC(=O)[C@H](Cc2ccc(C)c(C)c2)NC(=O)[C@H](Cc2ccc(-c3ccccc3)cc2)NC(=O)[C@@H]2CCNC(=O)CC[C@H](NC1=O)C(=O)N[C@@H](Cc1c[nH]c3ccccc13)C(=O)N[C@@H](CCC(N)=O)C(=O)N2 [Compound 168, [4-Aminomethyl-phenylacetyl](1c)*IE(2c)WQ[Dab](2c)[Bip][F(3,4-Me)][2-Me-Val]E(1c)[Dab][2-Me-3-(3-Pyridyl)-Ala]-[NH2]] ([X1]IEWQ[Dab][Bip][Phe(3,4-Me2)][αMeV]E[Dab][αMeAla(3-pyridyl)]-NH2; lactam 3-6, N-10) |
|  | 62 |  | CC[C@H](C)[C@@H]1NC(=O)Cc2ccc(cc2)CNC(=O)CC[C@@H](C(=O)N[C@@H](CCN)C(=O)N[C@@](C)(Cc2cccnc2)C(N)=O)NC(=O)[C@](C)(C(C)C)NC(=O)[C@H](Cc2ccc(C)c(C)c2)NC(=O)[C@@H](Cc2ccc(F)cc2)NC(=O)[C@@H]2CCNC(=O)CC[C@H](NC1=O)C(=O)N[C@@H](Cc1c[nH]c3ccccc13)C(=O)N[C@@H](CCC(N)=O)C(=O)N2 [Compound 170, [4-Aminomethyl-phenylacetyl](1c)*IE(2c)WQ[Dab](2c)[{d}F(4-F)][F(3,4-Me)][2-Me-Val]E(1c)[Dab][2-Me-3-(3-Pyridyl)-Ala]-[NH2]] ([X1]IEWQ[Dab][dPhe(4-F)][Phe(3,4-Me2)][αMeV]E[Dab][αMeAla(3-pyridyl)]-NH2; lactam 3-6, N-10) |
|  | 86 |  | CC[C@H](C)[C@@H]1NC(=O)Cc2ccc(cc2)CNC(=O)CC[C@@H](C(=O)N[C@@H](CCN)C(=O)N[C@@](C)(Cc2cccnc2)C(N)=O)NC(=O)[C@](C)(C(C)C)NC(=O)[C@H](Cc2ccc(C)c(C)c2)NC(=O)[C@H](c2ccccc2)NC(=O)[C@@H]2CCNC(=O)CC[C@H](NC1=O)C(=O)N[C@@H](Cc1c[nH]c3ccccc13)C(=O)N[C@@H](CCC(N)=O)C(=O)N2 [Compound 174, [4-Aminomethyl-phenylacetyl](1c)*IE(2c)WQ[Dab](2c)[Phg][F(3,4-Me)][2-Me-Val]E(1c)[Dab][2-Me-3-(3-Pyridyl)-Ala]-[NH2]] ([X1]IEWQ[Dab][Phg][Phe(3,4-Me2)][αMeV]E[Dab][αMeAla(3-pyridyl)]-NH2; lactam 3-6, N-10) |
